The results in this text go back to US8202882B2, “5-cyanothienopyridines for the treatment of tumours” (Merck Patent Gesellschaft MIT Beschränkter Haftung, priority 2007, dated 2012).

In this experiment the target is T1, GST-ALK5 (TGF-beta receptor I kinase) (Homo sapiens, UniProt P36897).
T1 sequence (P36897 34-503): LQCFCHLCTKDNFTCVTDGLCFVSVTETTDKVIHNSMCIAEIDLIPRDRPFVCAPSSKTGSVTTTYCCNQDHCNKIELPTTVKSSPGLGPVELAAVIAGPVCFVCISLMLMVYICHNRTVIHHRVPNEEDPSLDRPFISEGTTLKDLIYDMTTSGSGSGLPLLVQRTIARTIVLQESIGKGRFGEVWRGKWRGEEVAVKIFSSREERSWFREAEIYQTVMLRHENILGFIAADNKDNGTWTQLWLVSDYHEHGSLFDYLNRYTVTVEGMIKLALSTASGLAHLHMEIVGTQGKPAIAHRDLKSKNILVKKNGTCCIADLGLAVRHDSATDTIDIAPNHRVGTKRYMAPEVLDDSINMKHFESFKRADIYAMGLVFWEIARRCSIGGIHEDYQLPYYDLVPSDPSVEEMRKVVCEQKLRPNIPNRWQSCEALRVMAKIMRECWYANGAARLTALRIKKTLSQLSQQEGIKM
The experiment is described as follows: In-vitro (enzyme) kinase assay, 384-well flashplate; inhibition of TGF-beta. The experiment is classed as biochemical. The following applies: GST-ALK5 with GST-SMAD2 substrate, 3 mM ATP (33P-ATP), 30° C., 45 min. On the procedure:
In-Vitro (Enzyme) Assay for the Determination of the Efficacy of Inhibitors of the Inhibition of TGF-Beta-Promoted Effects Vermittelten Wirkungen
The kinase assay is carried out as 384-well flashplate assay. 31.2 nM of GST-ALK5, 439 nM of GST-SMAD2 and 3 mM of ATP (with 0.3 μCi of ^33P-ATP/well) are incubated in a total volume of 35 μl (20 mM of HEPES, 10 mM of MgCl, 5 mM of MnCl, 1 mM of DTT, 0.1% of BSA, pH 7.4) without or with test substance (5-10 concentrations) at 30° C. for 45 min. The reaction is stopped using 25 μl of 200 mM EDTA solution, filtered with suction at room temperature after 30 min, and the wells are washed with 3 times 100 μl of 0.9% NaCl solution. Radioactivity is measured in the TopCount. The IC50 values are calculated using RS1.
One may read the IC50 as the midpoint of a concentration-inhibition curve. Read a low IC50 as inhibition by little substance. With `N#Cc1c(N)nc2sc(C(N)=O)c(N)c2c1-c1nc2ccccc2s1` [Compound A16, 3,6-Diamino-4-benzothiazol-2-y1-5-cyanothieno[2,3-b]pyridine-2-carboxamide], inhibition was half-maximal at 290 nM (IC50).

`CN1CCN(CCCNc2nc3sc(C(N)=O)c(N)c3c(-c3cc4ccccc4o3)c2C#N)CC1` [Compound A30, 3-amino-4-benzofuran-2-yl-5-cyano-6-[3-(4-methylpiperazin-1-yl)propylamino]thieno[2,3-b]pyridine-2-carboxamide] yielded an IC50 of 63 nM. Against the preceding compound, the IC50 is about 4.6-fold lower.

Compound `N#Cc1c(NCC(O)CO)nc2sc(C(N)=O)c(N)c2c1-c1cc2ccccc2o1` (stereo not shown) [Compound A41, 3-Amino-4-benzofuran-2-yl-5-cyano-6-(2,3-dihydroxypropylamino)thieno[2,3-b]pyridine-2-carboxamide] displayed an IC50 of 180 nM.

On to `CCS(=O)(=O)N1CCN(c2nc3sc(C(N)=O)c(N)c3c(-c3cc(C)c(C)o3)c2C#N)CC1` [Compound A53, 3-Amino-5-cyano-4-(4,5-dimethylfuran-2-yl)-6-(4-ethanesulfonylpiperazin-1-yl)thieno[2,3-b]pyridine-2-carboxamide], for which half-maximal inhibition (IC50) required 240 nM. The IC50 values of the last two compounds are within 1.5-fold of each other.
